In the supplement of paper PMC10627819:

Experiments:
S. pneumoniae D39V [1] = assay: Bliss interaction score (quartile over a dose matrix) (fitness difference); higher = more antagonism (negative = synergy)
Method in brief: (§1)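 Fitness here means normalised growth, inferred for single drugs from the combination data. Growth was OD595 at entry into stationary phase, divided by the plate's robust no-drug mean and capped at 1. The Bliss score is observed minus expected fitness, with the expectation being the product, and its quartiles span technical, biological and donor/recipient replicates.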

S. aureus Newman [2] = assay: as above
Method in brief: as §1

B. subtilis 168 [3] = assay: as above
Method in brief: as §1

S. aureus DSM 20231 [4] = assay: as above
Method in brief: as §1

S. pneumoniae D39V [5] = assay: fitness (endpoint OD595 vs no drug) (fraction); higher = more growth
Method in brief: (§2)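 Fitness expresses the optical density reached at the stationary-phase transition as a fraction of the robust mean of no-drug control wells. It is capped at 1. Measurements were OD595 every 30 min for 14 h at 37 °C after inoculation of 384-well plates at OD595 0.01 (30 µl, or 55 µl for S. pneumoniae), minus the first reading.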

S. aureus Newman [6] = assay: as above
Method in brief: as §2

B. subtilis 168 [7] = assay: as above
Method in brief: as §2

S. aureus DSM 20231 [8] = assay: as above
Method in brief: as §2
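For Bliss interaction score (quartile over a dose matrix) in this document: first quartile when negative (synergy) and third quartile when positive (antagonism).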
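For fitness (endpoint OD595 vs no drug) in this document: OD595 on entry to stationary phase over no-drug wells; at most 1.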

CCCCCCCCCC(=O)N[C@@H](Cc1c[nH]c2ccccc12)C(=O)N[C@H](CC(N)=O)C(=O)N[C@@H](CC(=O)O)C(=O)N[C@@H]1C(=O)NCC(=O)N[C@@H](CCCN)C(=O)N[C@@H](CC(=O)O)C(=O)N[C@H](C)C(=O)N[C@@H](CC(=O)O)C(=O)NCC(=O)N[C@H](CO)C(=O)N[C@@H]([C@H](C)CC(=O)O)C(=O)N[C@@H](CC(=O)c2ccccc2N)C(=O)O[C@@H]1C [Daptomycin] + CN(N=O)C(=O)N[C@@H](C=O)[C@@H](O)[C@H](O)[C@H](O)CO [Streptozotocin]
Settings | Bliss interaction score
B. subtilis 168 [3] | -0.0562
S. aureus DSM 20231 [4] | 0.0436
S. aureus Newman [2] | 0.0468
S. pneumoniae D39V [1] | 0.0898

fitness
Settings | partner 0.15 µg/mL | partner 0.3 µg/mL | partner 0.6 µg/mL | partner 1.2 µg/mL | partner 2.4 µg/mL | partner 4.8 µg/mL
B. subtilis 168 [7], first compound 0.25 µg/mL | 0.89 | 0.914 | 0.969 | – | – | –
B. subtilis 168 [7], first compound 0.5 µg/mL | 0.835 | 0.761 | 0.768 | – | – | –
S. aureus DSM 20231 [8], first compound 0.5 µg/mL | 0.817 | 0.778 | 0.732 | – | – | –
S. aureus DSM 20231 [8], first compound 1 µg/mL | 0.93 | 0.799 | 0.744 | – | – | –
S. aureus DSM 20231 [8], first compound 2 µg/mL | 0.871 | 0.818 | 0.748 | – | – | –
S. aureus Newman [6], first compound 0.125 µg/mL | 0.945 | 0.805 | 0.636 | – | – | –
S. aureus Newman [6], first compound 0.25 µg/mL | 0.957 | 0.855 | 0.594 | – | – | –
S. aureus Newman [6], first compound 0.5 µg/mL | 0.969 | 0.807 | 0.627 | – | – | –
S. pneumoniae D39V [5], first compound 1 µg/mL | – | – | – | 0.94 | 0.939 | 0.918
S. pneumoniae D39V [5], first compound 2 µg/mL | – | – | – | 0.935 | 0.95 | 0.884
S. pneumoniae D39V [5], first compound 4 µg/mL | – | – | – | 0.968 | 0.942 | 0.923

fitness, one replicate
Settings | partner 0.15 µg/mL | partner 0.3 µg/mL | partner 0.6 µg/mL
B. subtilis 168 [7], first compound 0.125 µg/mL | 0.889 | 0.968 | 0.935
B. subtilis 168 [7], first compound 1 µg/mL | 0.658 | 0.674 | 0.669
S. aureus DSM 20231 [8], first compound 0.125 µg/mL | 0.795 | 0.761 | 0.645
S. aureus DSM 20231 [8], first compound 0.25 µg/mL | 0.883 | 0.764 | 0.656

CCCCCCCCCC(=O)N[C@@H](Cc1c[nH]c2ccccc12)C(=O)N[C@H](CC(N)=O)C(=O)N[C@@H](CC(=O)O)C(=O)N[C@@H]1C(=O)NCC(=O)N[C@@H](CCCN)C(=O)N[C@@H](CC(=O)O)C(=O)N[C@H](C)C(=O)N[C@@H](CC(=O)O)C(=O)NCC(=O)N[C@H](CO)C(=O)N[C@@H]([C@H](C)CC(=O)O)C(=O)N[C@@H](CC(=O)c2ccccc2N)C(=O)O[C@@H]1C [Daptomycin] + CN[C@@H]1[C@H](O)[C@H](NC)[C@H]2O[C@@]3(O)C(=O)C[C@@H](C)O[C@H]3O[C@@H]2[C@H]1O [Spectinomycin]
Settings | Bliss interaction score
B. subtilis 168 [3] | 0.0649
S. aureus DSM 20231 [4] | 0.0629
S. aureus Newman [2] | 0.0696
S. pneumoniae D39V [1] | 0.0673

fitness
Settings | first compound 0.125 µg/mL | first compound 0.25 µg/mL | first compound 0.5 µg/mL | first compound 1 µg/mL | first compound 2 µg/mL | first compound 4 µg/mL
B. subtilis 168 [7], partner 2 µg/mL | 0.934 | 0.979 | 0.836 | – | – | –
B. subtilis 168 [7], partner 4 µg/mL | 0.964 | 0.946 | 0.813 | – | – | –
B. subtilis 168 [7], partner 8 µg/mL | 0.863 | 0.944 | 0.835 | – | – | –
S. aureus DSM 20231 [8], partner 4 µg/mL | – | – | ≥ 1 | 0.978 | 0.964 | –
S. aureus DSM 20231 [8], partner 8 µg/mL | – | – | ≥ 1 | 0.96 | 0.946 | –
S. aureus DSM 20231 [8], partner 16 µg/mL | 0.852 | 0.872 | 0.905 | 0.931 | 0.866 | –
S. aureus Newman [6], partner 4 µg/mL | 0.963 | 0.932 | 0.924 | – | – | –
S. aureus Newman [6], partner 8 µg/mL | 0.991 | 0.983 | 0.952 | – | – | –
S. aureus Newman [6], partner 16 µg/mL | 0.915 | 0.917 | 0.905 | – | – | –
S. pneumoniae D39V [5], partner 4 µg/mL | – | – | – | 0.92 | 0.943 | 0.941
S. pneumoniae D39V [5], partner 8 µg/mL | – | – | – | 0.817 | 0.856 | 0.847
S. pneumoniae D39V [5], partner 16 µg/mL | – | – | – | 0.554 | 0.569 | 0.546

fitness, one replicate
Settings | partner 2 µg/mL | partner 4 µg/mL | partner 8 µg/mL | partner 32 µg/mL | partner 64 µg/mL
B. subtilis 168 [7], first compound 1 µg/mL | 0.704 | 0.71 | 0.751 | – | –
S. aureus DSM 20231 [8], first compound 0.125 µg/mL | – | 0.935 | 0.988 | 0.767 | 0.0669
S. aureus DSM 20231 [8], first compound 0.25 µg/mL | – | 0.977 | 0.998 | 0.7 | 0.0927
S. aureus DSM 20231 [8], first compound 0.5 µg/mL | – | – | – | 0.745 | 0.079
S. aureus Newman [6], first compound 0.125 µg/mL | – | – | – | 0.595 | 0.0775
S. aureus Newman [6], first compound 0.25 µg/mL | – | – | – | 0.63 | 0.0532
S. aureus Newman [6], first compound 0.5 µg/mL | – | – | – | 0.626 | 0.0675
